# Patent US20240307374A1, “FORMULATION OF FURIN INHIBITOR FOR INHALATION” (BP ASSET V, INC., priority 2021, published 2024)
# Entries after “also recorded” stand apart in the source; their conditions may differ.
# Key:
# Type in all cases: physicochemical
# [1] = Solubility profile of freeform Type D in citrate buffers; conditions: for solubility at 24 h: thermodynamic from solid, read-out: Solubility
# Method: Additional solids were added into the sample to generate suspension if clear solution was obtained. The suspension was equilibrated via stirring (1000 rpm) for 24 hours. The suspension was centrifuged to obtain precipitate and supernatants. Solubility and pH were tested for the supernatants after filtration, and the isolated precipitate was tested by XRPD.
# [2] = DVS (dynamic vapor sorption) moisture uptake
# Method: (FIG. 5). Sample weight decreased rapidly when humidity decreased from 10% to 0%, which might be caused by loss of crystalline water.
# DVS was measured via a SMS (Surface Measurement Systems) DVS Intrinsic.
# [3] = Thermodynamic relationships study: slurry competition in acetone/H2O systems; conditions: RT
# Method: Slurry competition was conducted in acetone/H2O systems with various water activities (0.0-1.0). […] Solids were separated and tested by XRPD.
# To measure the solubility of freeform in acetone/H2O systems with various water activities, the above experiments were re-performed with addition of aw=0.3 acetone/H2O system. The suspension sample was centrifuged to obtain precipitate and supernatants. Solubility was tested for the supernatants after filtration, and isolated precipitate was tested by XRPD.
# Solids were separated and tested by XRPD.
# [4] = Complexation stability constant test: solubility in HPβCD solutions; conditions: for solubility at 24 h: thermodynamic from solid
# Method: (§1) Additional solid was added into the sample to generate suspension if clear solution was obtained. The suspension was equilibrated via stirring (1000 rpm) for 24 hours. The suspension was centrifuged to obtain precipitate and supernatants. Solubility and pH was determined for the supernatants after filtration, and XRPD was obtained for the isolated precipitate.
# [5] = Formulation development with NaCl; conditions: ~35 mg freeform Type D + ~9.6 mg citric acid + ~6.1 mg NaCl in water
# Method: The concentration of freeform in the suspension was 0.60 mg/mL (pH 3.8). […] The experiment was redone, and a clear solution (a little cloudy) was obtained immediately after adding 1 mL water into ˜32 mg/mL API+9.6 mg/mL critic acid, solid precipitated out after addition of NaCl.
# [6] = Complexation stability constant test: solubility in SBECD solutions; conditions: for solubility at 24 h: thermodynamic from solid
# Method: as §1
compound,measurement,setting,value
CC(=O)NCC1CCN(Cc2cc(Oc3ccc(N4CCN(CCC(=O)O)CC4)nc3)nc(-c3cc(Cl)cc(Cl)c3)c2)CC1 [Freeform Type D],solubility at 24 h,"[1]; 50 mM citrate buffer, pH 4.89, aqueous buffer",13200 µg/mL
same,form change after equilibrium in all citrate buffers (XRPD),"[1]; 10/20/50/100 mM citrate buffers, 24 hours",No form change
same,solubility at 24 h,"[1]; aqueous buffer, 10 mM citrate buffer, buffer pH 2.88, RT, 24 hours, end pH 4.47",8600 µg/mL
same,solubility at 24 h,"[1]; aqueous buffer, 10 mM citrate buffer, buffer pH 3.34, RT, 24 hours, end pH 4.57",4000 µg/mL
same,solubility at 24 h,"[1]; aqueous buffer, 10 mM citrate buffer, buffer pH 3.89, RT, 24 hours, end pH 4.76",3400 µg/mL
same,solubility at 24 h,"[1]; aqueous buffer, 10 mM citrate buffer, buffer pH 4.30, RT, 24 hours, end pH 4.82",2100 µg/mL
same,solubility at 24 h,"[1]; aqueous buffer, 10 mM citrate buffer, buffer pH 4.90, RT, 24 hours, end pH 5.21",700 µg/mL
same,solubility at 24 h,"[1]; aqueous buffer, 20 mM citrate buffer, buffer pH 3.02, RT, 24 hours, end pH 4.59",14000 µg/mL
same,solubility at 24 h,"[1]; aqueous buffer, 20 mM citrate buffer, buffer pH 3.55, RT, 24 hours, end pH 4.69",9800 µg/mL
same,solubility at 24 h,"[1]; aqueous buffer, 20 mM citrate buffer, buffer pH 4.01, RT, 24 hours, end pH 4.67",5500 µg/mL
same,solubility at 24 h,"[1]; aqueous buffer, 20 mM citrate buffer, buffer pH 4.60, RT, 24 hours, end pH 4.91",2300 µg/mL
same,solubility at 24 h,"[1]; aqueous buffer, 20 mM citrate buffer, buffer pH 4.98, RT, 24 hours, end pH 5.28",800 µg/mL
same,solubility at 24 h,"[1]; aqueous buffer, 50 mM citrate buffer, buffer pH 3.76, RT, 24 hours, end pH 4.82",23800 µg/mL
same,solubility at 24 h,"[1]; aqueous buffer, 50 mM citrate buffer, buffer pH 4.70, RT, 24 hours, end pH 4.93",4700 µg/mL
same,solubility at 24 h,"[1]; aqueous buffer, 50 mM citrate buffer, buffer pH 5.27, RT, 24 hours, end pH 5.33",800 µg/mL
same,solubility at 24 h,"[1]; aqueous buffer, 100 mM citrate buffer, buffer pH 3.60, RT, 24 hours, end pH 4.92",24300 µg/mL
same,solubility at 24 h,"[1]; aqueous buffer, 100 mM citrate buffer, buffer pH 4.07, RT, 24 hours, end pH 4.88",56800 µg/mL
same,solubility at 24 h,"[1]; aqueous buffer, 100 mM citrate buffer, buffer pH 4.51, RT, 24 hours, end pH 5.03",21200 µg/mL
same,solubility at 24 h,"[1]; aqueous buffer, 100 mM citrate buffer, buffer pH 5.03, RT, 24 hours, end pH 5.16",4400 µg/mL
same,solubility at 24 h,"[1]; pH 4.7, aqueous buffer, 50 mM citrate buffer, buffer pH 3.23, RT, 24 hours, end pH 4.70",33200 µg/mL
same,solubility at 24 h,"[1]; pH 5.5, aqueous buffer, 100 mM citrate buffer, buffer pH 5.42, RT, 24 hours, end pH 5.50",600 µg/mL
same,Moisture Uptake (DVS),"[2]; 25° C., from 0% RH to 80% RH",6.3% (from 0% RH to 80% RH)
same,form change after DVS test (XRPD),[2]; XRPD before and after DVS,No form change
same,thermodynamic relationship of the forms,[3],thermodynamic form at the ambient conditions; also recorded: more stable hydrate form compared to freeform Type A
same,solubility at 24 h,"[4]; 5% (w/w) HPβCD solution, aqueous with cosolvent or surfactant or cyclodextrin, 5% (w/w) HPβCD, RT, 24 hours, final pH 7.3, read-out: Solubility",420 µg/mL
same,solubility at 24 h,"[4]; 5% (w/w) HPβCD solution, pH 7.3, aqueous with cosolvent or surfactant or cyclodextrin, 5% HPβCD (40.78 mmol/L), read-out: API Solubility",660 µM
same,solubility at 24 h,"[4]; 10% (w/w) HPβCD solution, aqueous with cosolvent or surfactant or cyclodextrin, 10% (w/w) HPβCD, RT, 24 hours, final pH 7.2, read-out: Solubility",940 µg/mL
same,solubility at 24 h,"[4]; 10% (w/w) HPβCD solution, pH 7.2, aqueous with cosolvent or surfactant or cyclodextrin, 10% HPβCD (81.56 mmol/L), read-out: API Solubility",1470 µM
same,solubility at 24 h,"[4]; 15% (w/w) HPβCD solution, aqueous with cosolvent or surfactant or cyclodextrin, 15% (w/w) HPβCD, RT, 24 hours, final pH 7.1, read-out: Solubility",1420 µg/mL
same,solubility at 24 h,"[4]; 15% (w/w) HPβCD solution, pH 7.1, aqueous with cosolvent or surfactant or cyclodextrin, 15% HPβCD (122.34 mmol/L), read-out: API Solubility",2220 µM
same,solubility at 24 h,"[4]; 20% (w/w) HPβCD solution, aqueous with cosolvent or surfactant or cyclodextrin, 20% (w/w) HPβCD, RT, 24 hours, final pH 7.0, read-out: Solubility",2090 µg/mL
same,solubility at 24 h,"[4]; 20% (w/w) HPβCD solution, pH 7, aqueous with cosolvent or surfactant or cyclodextrin, 20% HPβCD (163.11 mmol/L), read-out: API Solubility",3260 µM
same,solubility at 24 h,"[4]; 25% (w/w) HPβCD solution, aqueous with cosolvent or surfactant or cyclodextrin, 25% (w/w) HPβCD, RT, 24 hours, final pH 7.0, read-out: Solubility",2890 µg/mL
same,solubility at 24 h,"[4]; 25% (w/w) HPβCD solution, pH 7, aqueous with cosolvent or surfactant or cyclodextrin, 25% HPβCD (203.89 mmol/L), read-out: API Solubility",4510 µM
same,form change during solubility evaluation (XRPD),"[4]; HPβCD solutions, 24 hours",No form change
same,complexation stability constant K^1:1,"[4]; HPβCD, Higuchi-Connors phase-solubility method",1529 M⁻¹
same,pH,[5]; 24 hours,3.8
same,concentration of freeform in the suspension,[5]; 24 hours stirring,0.60 mg/mL
same,solubility at 24 h,"[6]; 5% (w/w) SBECD solution, aqueous with cosolvent or surfactant or cyclodextrin, 5% (w/w) SBECD, RT, 24 hours, final pH 7.8, read-out: Solubility",2610 µg/mL
same,solubility at 24 h,"[6]; 5% (w/w) SBECD solution, pH 7.8, aqueous with cosolvent or surfactant or cyclodextrin, 5% SBECD (54.23 mmol/L), read-out: API Solubility",4.07 mM
same,solubility at 24 h,"[6]; 10% (w/w) SBECD solution, aqueous with cosolvent or surfactant or cyclodextrin, 10% (w/w) SBECD, RT, 24 hours, final pH 7.9, read-out: Solubility",6470 µg/mL
same,solubility at 24 h,"[6]; 10% (w/w) SBECD solution, pH 7.9, aqueous with cosolvent or surfactant or cyclodextrin, 10% SBECD (108.46 mmol/L), read-out: API Solubility",10.1 mM
same,solubility at 24 h,"[6]; 15% (w/w) SBECD solution, aqueous with cosolvent or surfactant or cyclodextrin, 15% (w/w) SBECD, RT, 24 hours, final pH 7.9, read-out: Solubility",8810 µg/mL
same,solubility at 24 h,"[6]; 15% (w/w) SBECD solution, pH 7.9, aqueous with cosolvent or surfactant or cyclodextrin, 15% SBECD (162.70 mmol/L), read-out: API Solubility",13.7 mM
same,solubility at 24 h,"[6]; 20% (w/w) SBECD solution, aqueous with cosolvent or surfactant or cyclodextrin, 20% (w/w) SBECD, RT, 24 hours, final pH 7.9, read-out: Solubility",9350 µg/mL
same,solubility at 24 h,"[6]; 20% (w/w) SBECD solution, pH 7.9, aqueous with cosolvent or surfactant or cyclodextrin, 20% SBECD (216.93 mmol/L), read-out: API Solubility",14.6 mM
same,solubility at 24 h,"[6]; 25% (w/w) SBECD solution, aqueous with cosolvent or surfactant or cyclodextrin, 25% (w/w) SBECD, RT, 24 hours, final pH 7.9, read-out: Solubility",11000 µg/mL
same,solubility at 24 h,"[6]; 25% (w/w) SBECD solution, pH 7.9, aqueous with cosolvent or surfactant or cyclodextrin, 25% SBECD (271.16 mmol/L), read-out: API Solubility",17.1 mM
same,form change during solubility evaluation (XRPD),"[6]; SBECD solutions, 24 hours",No form change
same,complexation stability constant K^1:1,"[6]; SBECD, Higuchi-Connors phase-solubility method",3831 M⁻¹
